According to US12161694B2, “Methods and compositions for regulating innate lymphoid cell inflammatory responses” (The Broad Institute, Inc., priority 2017, dated 2024):
Where no end group is shown, it is not given here.

Test system: lung-resident ILCs
Assay: Flow cytometry of lung ILCs after in vivo treatment (Ki-67, ILC frequency, IL-17RB, surface and intracellular markers)
Design: species or system mouse
Description: Mice and in vivo ILC activation. C57Bl/6J mice were purchased from the Jackson Laboratory. Nmur1-LacZ reporter mice with a LacZ cassette knocked into the Nmur1 locus were rederived from Nmur1^tm1.1(KOMP)Vleg sperm obtained from the trans-NIH Knock-Out Mouse Project (KOMP) Repository. Mice were housed under specific-pathogen-free conditions. For experiments, mice were matched for sex and age, and most mice were 6-10 weeks old. Where indicated, mice were anesthetized with Isoflurane and treated intranasally with the indicated stimuli (500 ng IL-25, 500 ng IL-33, or 20 μg Neuromedin U) daily for three consecutive days. The total administered volume was 20 μl for all conditions. Mice were randomly assigned to treatment groups after matching for sex and age. […] Mice were treated intranasally with 10 μg HDM on day 0, 7, 8, and 9, prior to sacrifice on day 10. […]
Flow cytometry. […] Cells were stained on ice with antibodies for surface molecules and the live/dead marker 7AAD and analyzed on a LSRFortessa (BD Biosciences). […]
Lung analysis. […] BALF was centrifuged, and the supernatant was used for analyzing cytokine levels and the cell pellet was resuspended, counted, and used for flow cytometry. […] Where indicated, cells were diluted in 10% Trypan Blue and viable cells counted using a hemocytometer. […]

Neuromedin U (FRVDEEFQSPFASQSRGYFLFRPRN-NH2; listed as Homo sapiens) [NMU, neuropeptide ligand of Nmur1 (US Biological)]
Galectin-3 (Lgals3) and gp49 (Lilrb4a) expression on ILCs: up-regulated
